Laboratory results taken from patent US20210145000A1, “WEED CONTROL FROM APPLICATIONS OF PYRIDINE CARBOXYLIC ACID HERBICIDES AND ACETYL CoA CARBOXYLASE (ACCase) INHIBITORS” (Dow AgroSciences LLC, priority 2018, published 2021).

Tests used:
Assay in all cases: Postemergence herbicidal activity, greenhouse, visual injury
Type in all cases: in vivo
[1] = test system: winter rape (Brassica napus, BRSNW); details: post-emergence, read-out: Effect (% visual injury) Obs
Experimental: (§1) Seeds of the desired test plant species were planted in Sun Gro MetroMix® 306 planting mixture, which typically has a pH of 6.0 to 6.8 and an organic matter content of about 30 percent, in plastic pots with a surface area of 103.2 square centimeters (cm^2). When required to ensure good germination and healthy plants, a fungicide treatment and/or other chemical or physical treatment was applied. The plants were grown for 7-36 days (d) in a greenhouse with an approximate 14-hour (h) photoperiod which was maintained at about 23° C. during the day and 22° C. during the night. Nutrients and water were added on a regular basis and supplemental lighting was provided with overhead metal halide 1000-Watt lamps as necessary. The plants were employed for testing when they reached the second or third true leaf stage.
(§2) An emulsifiable concentrate (EC) formulation containing Compound 1 at 100 gai/L was prepared by combining Compound 1 with 1-butyl-2-pyrrolidinone (Tamisolve NxG; 360.5 g/L), benzyl acetate (544.6 g/L) and Agnique MBL 520L surfactant (52.9 g/L). […] The concentrated stock solution was diluted with an aqueous mixture of 1.5% v/v of Agri-dex crop oil concentrate to provide the appropriate application rates. Compound requirements are based upon a 12 milliliter (mL) application volume at a rate of 187 liters per hectare (L/ha). Spray solutions of the experimental compound mixtures were prepared by adding the stock solutions to the appropriate amount of dilution solution to form a 12 mL spray solution in two-way combinations. Formulated compounds were applied to the plant material with an overhead Mandel track sprayer equipped with 8002E nozzles calibrated to deliver 187 L/ha over an application area of 0.503 square meters (m^2) at a spray height of 18 inches (43 centimeters (cm)) above average plant canopy. Control plants were sprayed in the same manner with the solvent blank. Application rates for component (a) are in g ae/ha, and application rates for component (b) are in g ai/ha.
(§3) The treated plants and control plants were placed in a greenhouse as described above and watered by sub-irrigation to prevent wash-off of the test compounds. After 20-22 d, the condition of the test plants as compared with that of the control plants was determined visually and scored on a scale of 0 to 100 percent where 0 corresponds to no injury and 100 corresponds to complete kill. […] The Colby method was used to determine the herbicidal effects expected from the mixtures.

[2] = test system: chickweed (Stellaria media, STEME); details: post-emergence, read-out: Effect (% visual injury) Obs
Experimental: as §1, §2, §3

[3] = test system: poinsettia (Euphorbia heterophylla, EPHHL)
Experimental: as §1, §2, §3

[4] = test system: blackgrass (Alopecurus myosuroides, ALOMY); details: post-emergence, read-out: Effect (% visual injury) Obs
Experimental: (§4) The plants were grown for 7-36 days (d) in a greenhouse with an approximate 14-hour (h) photoperiod which was maintained at about 23° C. during the day and 22° C. during the night. Nutrients and water were added on a regular basis and supplemental lighting was provided with overhead metal halide 1000-Watt lamps as necessary. The plants were employed for testing when they reached the second or third true leaf stage.
(§5) Spray solutions of the experimental compound mixtures were prepared by adding the stock solutions to the appropriate amount of dilution solution to form a 12 mL spray solution in two-way combinations. […] Control plants were sprayed in the same manner with the solvent blank. Application rates for component (a) are in g ae/ha, and application rates for component (b) are in g ai/ha.
as §3

[5] = test system: wild pansy (Viola tricolor, VIOTR); details: post-emergence, read-out: Effect (% visual injury) Obs
Experimental: as §4, §5, §3

[6] = test system: winter wheat (Triticum aestivum, TRZAW); details: post-emergence, read-out: Effect (% visual injury) Obs
Experimental: as §4, §5, §3

[7] = test system: pigweed (Amaranthus retroflexus, AMARE); details: post-emergence, read-out: Effect (% visual injury) Obs
Experimental: as §4, §5, §3

[8] = test system: giant foxtail (Setaria faberi, SETFA); details: post-emergence, read-out: Effect (% visual injury) Obs
Experimental: as §4, §5, §3

[9] = test system: large crabgrass (Digitaria sanguinalis, DIGSA); details: post-emergence, read-out: Effect (% visual injury) Obs
Experimental: as §4, §5, §3

[10] = test system: maize (Zea mays, ZEAMX); details: post-emergence, read-out: Effect (% visual injury) Obs
Experimental: as §4, §5, §3

[11] = test system: velvetleaf (Abutilon theophrasti, ABUTH); details: post-emergence, read-out: Effect (% visual injury) Obs
Experimental: as §4, §5, §3

[12] = test system: rice (Oryza sativa, ORYSA); details: post-emergence, read-out: Effect (% visual injury) Obs
Experimental: as §4, §5, §3

[13] = test system: wild oat (Avena fatua, AVEFA); details: post-emergence, read-out: Effect (% visual injury) Obs
Experimental: as §4, §5, §3

[14] = test system: barnyardgrass (Echinochloa crus-galli, ECHCG); details: post-emergence, read-out: Effect (% visual injury) Obs
Experimental: as §4, §5, §3

[15] = test system: wild buckwheat (Polygonum convolvulus, POLCO); details: Fallopia convolvulus, post-emergence, read-out: Effect (% visual injury) Obs
Experimental: as §4, §5, §3

[16] = test system: sunflower (Helianthus annuus, HELAN); details: post-emergence, read-out: Effect (% visual injury) Obs
Experimental: as §4, §5, §3

[17] = test system: soybean (Glycine max, GLXMA); details: post-emergence, read-out: Effect (% visual injury) Obs
Experimental: as §4, §5, §3

[18] = test system: common lambsquarters (Chenopodium album L., CHEAL); details: post-emergence, read-out: Effect (% visual injury) Obs
Experimental: as §4, §5, §3

[19] = test system: grain sorghum (Sorghum vulgare, SORVU); details: post-emergence, read-out: Effect (% visual injury) Obs
Experimental: as §4, §5, §3

[20] = test system: kochia (Kochia scoparia, KCHSC); details: Tralkoxydim 200 g ai/ha
Experimental: as §1, §2, §3

SMILES: CCCCOC(=O)[C@@H](C)Oc1ccc(Oc2ccc(C(F)(F)F)cn2)cc1 [Fluazifop-butyl]
- plant injury at 105 g/ha [1]: 0%
- pest or weed control at 105 g/ha [2]: 0%
- Effect (% visual injury) Obs ([3]; Fluazifop-butyl 105 g ai/ha): 0%
- pest or weed control at 105 g/ha [4]: 20%
- pest or weed control at 105 g/ha [5]: 0%
- plant injury at 105 g/ha [6]: 90%
- pest or weed control at 105 g/ha [7]: 0%
- pest or weed control at 105 g/ha [8]: 97%
- pest or weed control at 105 g/ha [9]: 95%
- plant injury at 105 g/ha [10]: 100%
- pest or weed control at 105 g/ha [11]: 0%
- plant injury at 105 g/ha [12]: 85%
- pest or weed control at 105 g/ha [13]: 95%
- pest or weed control at 105 g/ha [14]: 100%
- pest or weed control at 105 g/ha [15]: 0%

SMILES: COC(=O)[C@@H](C)Oc1ccc(Oc2ncc(C(F)(F)F)cc2Cl)cc1 [Haloxyfop-P-methyl]
- plant injury at 70 g/ha [1]: 0%
- pest or weed control at 70 g/ha [2]: 0%
- Effect (% visual injury) Obs ([3]; Haloxyfop-P-methyl 70 g ai/ha): 0%
- plant injury at 70 g/ha [16]: 0%
- plant injury at 70 g/ha [17]: 0%
- pest or weed control at 70 g/ha [4]: 97%
- pest or weed control at 70 g/ha [18]: 0%
- pest or weed control at 70 g/ha [5]: 0%
- plant injury at 70 g/ha [6]: 100%
- pest or weed control at 70 g/ha [7]: 0%
- pest or weed control at 70 g/ha [9]: 100%
- plant injury at 70 g/ha [10]: 100%
- pest or weed control at 70 g/ha [11]: 0%
- plant injury at 70 g/ha [12]: 100%
- pest or weed control at 70 g/ha [14]: 100%
- plant injury at 70 g/ha [19]: 100%
- pest or weed control at 70 g/ha [15]: 0%

SMILES: CCc1cc(C)cc(CC)c1-c1c(OC(=O)C(C)(C)C)n2n(c1=O)CCOCC2 [Pinoxaden]
- pest or weed control at 30 g/ha ([2]; Pinoxaden 30 g ai/ha): 0%
- plant injury ([16]; Pinoxaden 30 g ai/ha): 0%
- plant injury ([17]; Pinoxaden 30 g ai/ha): 0%
- pest or weed control ([18]; Pinoxaden 30 g ai/ha): 0%
- pest or weed control ([5]; Pinoxaden 30 g ai/ha): 0%
- plant injury ([6]; Pinoxaden 30 g ai/ha): 0%
- pest or weed control ([7]; Pinoxaden 30 g ai/ha): 0%
- pest or weed control ([8]; Pinoxaden 30 g ai/ha): 0%
- pest or weed control ([9]; Pinoxaden 30 g ai/ha): 10%
- plant injury ([10]; Pinoxaden 30 g ai/ha): 10%
- pest or weed control ([11]; Pinoxaden 30 g ai/ha): 0%
- plant injury ([12]; Pinoxaden 30 g ai/ha): 99%
- pest or weed control ([13]; Pinoxaden 30 g ai/ha): 95%
- pest or weed control ([14]; Pinoxaden 30 g ai/ha): 100%
- plant injury ([19]; Pinoxaden 30 g ai/ha): 100%
- pest or weed control ([15]; Pinoxaden 30 g ai/ha): 0%

SMILES: CCOC(=O)[C@@H](C)Oc1ccc(Oc2cnc3cc(Cl)ccc3n2)cc1 [Quizalofop-P-ethyl]
- plant injury at 75 g/ha [16]: 0%
- plant injury at 75 g/ha [17]: 0%
- pest or weed control at 75 g/ha [4]: 100%
- pest or weed control at 75 g/ha [18]: 0%
- pest or weed control at 75 g/ha [5]: 0%
- plant injury at 75 g/ha [6]: 99%
- pest or weed control at 75 g/ha [7]: 0%
- pest or weed control at 75 g/ha [8]: 100%
- pest or weed control at 75 g/ha [9]: 100%
- plant injury at 75 g/ha [10]: 100%
- pest or weed control at 75 g/ha [11]: 0%
- plant injury at 75 g/ha [12]: 100%
- pest or weed control at 75 g/ha [13]: 98%
- pest or weed control at 75 g/ha [14]: 100%
- plant injury at 75 g/ha [19]: 100%
- pest or weed control at 75 g/ha [15]: 0%

SMILES: CCON=C(CC)C1=C(O)CC(c2c(C)cc(C)cc2C)CC1=O (stereo not drawn) [Tralkoxydim, 2-[1-(ethoxyimino)propyl]-3-hydroxy-5-mesitylcyclohex-2-enone]
- plant injury at 200 g/ha [1]: 0%
- pest or weed control at 200 g/ha [2]: 10%
- Effect (% visual injury) Obs [20]: 0%
- Effect (% visual injury) Obs ([3]; Tralkoxydim 200 g ai/ha): 0%
- plant injury at 200 g/ha [17]: 0%
- pest or weed control at 200 g/ha [18]: 5%
- pest or weed control at 200 g/ha [5]: 5%
- pest or weed control at 200 g/ha [7]: 0%
- pest or weed control at 200 g/ha [8]: 0%
- pest or weed control at 200 g/ha [9]: 50%
- plant injury at 200 g/ha [10]: 100%
- pest or weed control at 200 g/ha [11]: 0%
- plant injury at 200 g/ha [12]: 75%
- pest or weed control at 200 g/ha [13]: 100%
- pest or weed control at 200 g/ha [14]: 30%
- plant injury at 200 g/ha [19]: 60%
- pest or weed control at 200 g/ha [15]: 0%
